# Reference: PubChem BioAssay AID278 (DTP/NCI, 2004)
# “And” between values parts separate entries of the source, which are not always exact repeats. Equal entries are not always repeated. Records with an inconclusive call do not appear.
# Tested on: nude mice, A549 intrarenal xenograft, tumor weight change
# Test: NCI In Vivo Anticancer Drug Screen. Data for tumor model A549 Human Adenocarcinoma of Lung with characteristics of Type II Alveolar Epithelial cells (intrarenal inoculation) in NU/NU BALB/C (nude) mice
# Settings: endpoint: mean tumor weight change, higher = larger tumour
# Outline: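 Activity is expressed as T/C: the treated-group value over the vehicle-treated control value. The measure was survival or tumor size in mice carrying transplantable tumors.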
# [1] = dose: 150.0 mg/kg/injection, schedule: Q04DX003 (ip), vehicle: saline
# [2] = dose: 50.0 mg/kg/injection, schedule: Q04DX003 (ip), vehicle: Klucel (hydroxypropylcellulose) (HPC)
# [3] = dose: 100.0 mg/kg/injection, schedule: Q04DX003 (ip), vehicle: Klucel (hydroxypropylcellulose) (HPC)
# [4] = dose: 150.0 mg/kg/injection, schedule: Q04DX003 (ip), vehicle: saline with Tween-80
# [5] = dose: 25.0 mg/kg/injection, schedule: Q04DX003 (ip), vehicle: saline with Tween-80
# [6] = dose: 75.0 mg/kg/injection, schedule: Q04DX003 (ip), vehicle: saline
# [7] = dose: 300.0 mg/kg/injection, schedule: Q04DX003 (ip), vehicle: saline with Tween-80
# [8] = dose: 50.0 mg/kg/injection, schedule: Q04DX003 (ip), vehicle: saline with Tween-80
# [9] = dose: 100.0 mg/kg/injection, schedule: Q04DX003 (ip), vehicle: saline with Tween-80
# [10] = dose: 200.0 mg/kg/injection, schedule: Q04DX003 (ip), vehicle: saline with Tween-80
compound,measurement,setting,value
NC(=S)N/N=C/c1cc(=O)c2cc(Cl)ccc2o1,T/C,"dose: 75.0 mg/kg/injection, schedule: Q04DX003 (ip), vehicle: DMSO",66 % of control
same,T/C,"dose: 150.0 mg/kg/injection, schedule: Q04DX003 (ip), vehicle: other",15 % of control
same,T/C,"dose: 300.0 mg/kg/injection, schedule: Q04DX003 (ip), vehicle: DMSO",152 % of control
same,T/C,"dose: 300.0 mg/kg/injection, schedule: Q04DX003 (ip), vehicle: other",29 % of control
same,T/C,"dose: 600.0 mg/kg/injection, schedule: Q04DX003 (ip), vehicle: DMSO",150 % of control
same,T/C,"dose: 600.0 mg/kg/injection, schedule: Q04DX003 (ip), vehicle: other",36 % of control
O=C(O)C1CC(O)CN1 (stereo not drawn),T/C,[1],70 % of control
same,T/C,"dose: 300.0 mg/kg/injection, schedule: Q04DX003 (ip), vehicle: saline",65 % of control
same,T/C,"dose: 600.0 mg/kg/injection, schedule: Q04DX003 (ip), vehicle: saline",110 % of control
same,T/C,"dose: 1200.0 mg/kg/injection, schedule: Q04DX003 (ip), vehicle: saline",71 % of control
N#CC(C#N)=NNc1ccc2cn[nH]c2c1,T/C,[2],-6 % of control
same,T/C,[3],117 % of control and 124 % of control
CCOc1cc2c(cc1C(C)c1ccc(OC)cc1)OCO2 (stereo not drawn),T/C,"dose: 54.0 mg/kg/injection, schedule: Q04DX003 (ip), vehicle: distilled water + alcohol",67 % of control
same,T/C,"dose: 90.0 mg/kg/injection, schedule: Q04DX003 (ip), vehicle: distilled water + alcohol",48 % of control
same,T/C,"dose: 250.0 mg/kg/injection, schedule: Q04DX003 (ip), vehicle: distilled water + alcohol",4 % of control
CN(C)CCNc1ccc(CO)c2sc3ccc(O)cc3c(=O)c12,T/C,"dose: 54.0 mg/kg/injection, schedule: Q04DX003 (ip), vehicle: saline with Tween-80",5 % of control
same,T/C,"dose: 90.0 mg/kg/injection, schedule: Q04DX003 (ip), vehicle: saline with Tween-80",3 % of control
same,T/C,[4],2 % of control and 12 % of control
same,T/C,"dose: 250.0 mg/kg/injection, schedule: Q04DX003 (ip), vehicle: saline with Tween-80",-36 % of control
CN(C)c1ccc2c(Nc3ccc(NS(C)(=O)=O)cc3)c3ccc(N(C)C)cc3nc2c1,T/C,[2],116 % of control
same,T/C,[3],39 % of control
same,T/C,"dose: 200.0 mg/kg/injection, schedule: Q04DX003 (ip), vehicle: Klucel (hydroxypropylcellulose) (HPC)",41 % of control
CO[C@H](/C(C)=C/C=C/C(C)=C/c1coc(C)n1)[C@H](C)[C@H]1C[C@@H](O)[C@@]2(C)O[C@H]2/C=C/[C@@H](C)[C@@H]2C[C@@H](CC(=O)O2)C[C@H]2O[C@@H]2C(=O)O1,T/C,"dose: 0.07 mg/kg/injection, schedule: Q04DX003 (ip), vehicle: other",71 % of control
same,T/C,"dose: 0.12 mg/kg/injection, schedule: Q04DX003 (ip), vehicle: other",54 % of control
same,T/C,"dose: 0.13 mg/kg/injection, schedule: Q01DX009 (ip), vehicle: Klucel (hydroxypropylcellulose) (HPC)",54 % of control
same,T/C,"dose: 0.18 mg/kg/injection, schedule: Q04DX003 (ip), vehicle: Klucel (hydroxypropylcellulose) (HPC)",57 % of control
same,T/C,"dose: 0.2 mg/kg/injection, schedule: Q01DX009 (ip), vehicle: Klucel (hydroxypropylcellulose) (HPC)",15 % of control
same,T/C,"dose: 0.2 mg/kg/injection, schedule: Q04DX003 (ip), vehicle: other",86 % of control
same,T/C,"dose: 0.3 mg/kg/injection, schedule: Q01DX009 (ip), vehicle: Klucel (hydroxypropylcellulose) (HPC)",38 % of control
same,T/C,"dose: 0.3 mg/kg/injection, schedule: Q04DX003 (ip), vehicle: Klucel (hydroxypropylcellulose) (HPC)",41 % of control
same,T/C,"dose: 0.33 mg/kg/injection, schedule: Q04DX003 (ip), vehicle: other",21 % of control
same,T/C,"dose: 0.5 mg/kg/injection, schedule: Q04DX003 (ip), vehicle: Klucel (hydroxypropylcellulose) (HPC)",26 % of control
same,T/C,"dose: 0.83 mg/kg/injection, schedule: Q04DX003 (ip), vehicle: Klucel (hydroxypropylcellulose) (HPC)",21 % of control
CC(=O)NO,T/C,"dose: 150.0 mg/kg/injection, schedule: Q04DX003 (ip), vehicle: water",83 % of control
same,T/C,"dose: 300.0 mg/kg/injection, schedule: Q04DX003 (ip), vehicle: water",82 % of control
same,T/C,"dose: 600.0 mg/kg/injection, schedule: Q04DX003 (ip), vehicle: water",109 % of control
same,T/C,"dose: 1200.0 mg/kg/injection, schedule: Q04DX003 (ip), vehicle: water",66 % of control
O=C1C=C(N2CC2)C(=O)C(N2CC2)=C1N1CC1,T/C,"dose: 100.0 micrograms/kg/injection, schedule: Q04DX003 (ip), vehicle: saline",25 % of control and 29 % of control
same,T/C,"dose: 144.0 micrograms/kg/injection, schedule: Q04DX003 (ip), vehicle: saline + alcohol",-27 % of control
same,T/C,"dose: 240.0 micrograms/kg/injection, schedule: Q04DX003 (ip), vehicle: saline + alcohol",-14 % of control
same,T/C,"dose: 400.0 micrograms/kg/injection, schedule: Q04DX003 (ip), vehicle: saline",6 % of control
CC(C)N1C(=O)N(Cl)C2C1N(Cl)C(=O)N2Cl (stereo not drawn),T/C,"dose: 12.5 mg/kg/injection, schedule: Q04DX003 (ip), vehicle: saline with Tween-80",51 % of control and 76 % of control
same,T/C,[5],18 % of control
COc1cc(C(C)c2cc3c(cc2OCCO)OCO3)cc(OC)c1OC (stereo not drawn),T/C,"dose: 125.0 mg/kg/injection, schedule: Q04DX003 (ip), vehicle: suspension in saline",117 % of control
same,T/C,"dose: 250.0 mg/kg/injection, schedule: Q04DX003 (ip), vehicle: suspension in saline",72 % of control
O=C(Oc1ccccc1)c1cc(O)c(O)c(O)c1,T/C,"dose: 18.75 mg/kg/injection, schedule: Q04DX003 (ip), vehicle: saline",60 % of control
same,T/C,"dose: 37.5 mg/kg/injection, schedule: Q04DX003 (ip), vehicle: saline",80 % of control
same,T/C,[6],50 % of control
same,T/C,[1],62 % of control
NC(=O)c1cc(Cl)nc2nc(Cl)nc(N)c12,T/C,[4],111 % of control
same,T/C,[7],89 % of control
same,T/C,"dose: 600.0 mg/kg/injection, schedule: Q04DX003 (ip), vehicle: saline with Tween-80",55 % of control
same,T/C,"dose: 1200.0 mg/kg/injection, schedule: Q04DX003 (ip), vehicle: saline with Tween-80",93 % of control
O=C1c2ccccc2C(Cl)(c2ccc(Cl)cc2)c2ccc(Cl)cc21 (stereo not drawn),T/C,[4],244 % of control
Cc1ccoc1,T/C,[8],78 % of control
same,T/C,[9],89 % of control
same,T/C,[10],75 % of control
NC(=S)N/N=C/c1ccc(O)cn1,T/C,[9],46 % of control
same,T/C,[10],57 % of control
same,T/C,"dose: 400.0 mg/kg/injection, schedule: Q04DX003 (ip), vehicle: saline with Tween-80",53 % of control
COc1ccc2oc(-c3ccc(Cl)cc3)c(N3CCN(C)CC3)c2c1,T/C,[6],21 % of control
same,T/C,[1],24 % of control
CN=C(NC)c1ccc(NC(=O)/C=C\c2ccc(/C=C/C(=O)Nc3ccc(C(=NC)NC)cc3)cc2)cc1,T/C,"dose: 3.13 mg/kg/injection, schedule: Q04DX003 (ip), vehicle: Klucel (hydroxypropylcellulose) (HPC)",47 % of control
same,T/C,"dose: 6.25 mg/kg/injection, schedule: Q04DX003 (ip), vehicle: Klucel (hydroxypropylcellulose) (HPC)",67 % of control
same,T/C,"dose: 12.5 mg/kg/injection, schedule: Q04DX003 (ip), vehicle: Klucel (hydroxypropylcellulose) (HPC)",47 % of control
N[C@@H](Cc1c[nH]c2ccccc12)C(=O)Nc1nncs1,T/C,"dose: 150.0 mg/kg/injection, schedule: Q04DX003 (ip), vehicle: suspension in saline",74 % of control
same,T/C,"dose: 300.0 mg/kg/injection, schedule: Q04DX003 (ip), vehicle: suspension in saline",67 % of control
same,T/C,"dose: 600.0 mg/kg/injection, schedule: Q04DX003 (ip), vehicle: suspension in saline",70 % of control
Cn1c2ccccc2c2ccc3c(c21)C(=O)C=CC3=O,T/C,[5],61 % of control
same,T/C,[8],26 % of control
same,T/C,[9],38 % of control
same,T/C,[10],35 % of control
Nc1ccn([C@@H]2C=C(CO)[C@@H](O)[C@H]2O)c(=O)n1,T/C,"dose: 0.67 mg/kg/injection, schedule: Q01DX009 (ip), vehicle: saline",58 % of control
same,T/C,"dose: 1.0 mg/kg/injection, schedule: Q01DX009 (ip), vehicle: saline",20 % of control and 40 % of control
same,T/C,"dose: 1.5 mg/kg/injection, schedule: Q01DX009 (ip), vehicle: saline",-59 % of control
same,T/C,"dose: 2.0 mg/kg/injection, schedule: Q01DX009 (ip), vehicle: saline",8 % of control
CC(O)CCC(=O)c1ccoc1 (stereo not drawn),T/C,"dose: 24.0 mg/kg/injection, schedule: Q04DX003 (ip), vehicle: saline",186 % of control
same,T/C,"dose: 32.0 mg/kg/injection, schedule: Q04DX003 (ip), vehicle: saline",82 % of control
NC(Cc1ccc(N(CCCl)Cc2ccccc2)cc1)C(=O)O (stereo not drawn),T/C,[8],74 % of control
same,T/C,[9],32 % of control
same,T/C,[10],38 % of control
CCCCNP1(NCCCC)=NP(NCCCC)(NCCCC)=NP(NCCCC)(NCCCC)=NP(NCCCC)(NCCCC)=N1,T/C,[4],111 % of control
same,T/C,[7],44 % of control
